According to patent US20260240847A1, “COMPOUNDS WITH ANTI-TUMOR ACTIVITY AGAINST CANCER CELLS BEARING TYROSINE KINASE INHIBITOR RESISTANT EGFR MUTATIONS” (BOARD OF REGENTS, THE UNIVERSITY OF TEXAS SYSTEM, priority 2019, published 2026):

How the values were obtained:
Assay in all cases: Ba/F3 cell viability, Cell Titer Glo
[1] = target: EGFR S768I V774M (Homo sapiens, UniProt P00533, S768I/V774M); details: read-out: IC50 Values; Ba/F3 cells expressing EGFR S768I V774M, 72 hours
Description: (§1) Cell viability was determined by the Cell Titer Glo assay.
(§2) Briefly, stable Ba/F3 cell lines were generated by retroviral transduction of Ba/F3 cell line for 12 hours. […] Three days after transduction, 2 μg/ml puromycin (Invitrogen) was added to the RPMI media. Cell lines were then grown in the absence of IL-3 for two weeks and cell viability was assessed every three days using the Cell Titer Glo assay (Progema).
(§3) Briefly, 2000-3000 cells per well were plated in 384-well plates (Greiner Bio-One) in technical triplicate. Cells were treated with seven different concentrations of tyrosine kinase inhibitors or vehicle alone at a final volume of 40 μL per well. After 3 days, 11 μL of Cell Titer Glo was added to each well. Plates were shaken for 15 minutes, and bioluminescence was determined using a FLUOstar OPTIMA multi-mode micro-plate reader (BMG LABTECH). Bioluminescence values were normalized to DMSO treated cells, and normalized values were plotted in GraphPad Prism using non-linear regression fit to normalized data with a variable slope.

[2] = target: EGFR T790M (Homo sapiens, UniProt P00533, T790M); details: read-out: IC50 Values; Ba/F3 cells expressing EGFR T790M, 72 hours
Description: as §1, §2, §3

[3] = target: EGFR G724S T790M (Homo sapiens, UniProt P00533, G724S/T790M); details: read-out: IC50 Values; Ba/F3 cells expressing EGFR G724S T790M, 72 hours
Description: as §1, §2, §3

[4] = target: EGFR L718V (Homo sapiens, UniProt P00533, L718V); details: read-out: IC50 Values; Ba/F3 cells expressing EGFR L718V, 72 hours
Description: as §1, §2, §3

[5] = target: EGFR R776C (Homo sapiens, UniProt P00533, R776C); details: read-out: IC50 Values; Ba/F3 cells expressing EGFR R776C, 72 hours
Description: as §1, §2, §3

[6] = target: EGFR S768dupSVD (Homo sapiens, UniProt P00533, DUP768-770); details: read-out: IC50 Values; Ba/F3 cells expressing EGFR S768dupSVD, 72 hours
Description: as §1, §2, §3

[7] = target: EGFR H773insNPH (Homo sapiens, UniProt P00533, INS773NPH); details: read-out: IC50 Values; Ba/F3 cells expressing EGFR H773insNPH, 72 hours
Description: as §1, §2, §3

[8] = target: EGFR E709A (Homo sapiens, UniProt P00533, E709A); details: read-out: IC50 Values; Ba/F3 cells expressing EGFR E709A, 72 hours
Description: as §1, §2, §3

[9] = target: EGFR L858R T790M V843I (Homo sapiens, UniProt P00533, L858R/T790M/V843I); details: read-out: IC50 Values; Ba/F3 cells expressing EGFR L858R T790M V843I, 72 hours
Description: as §1, §2, §3

[10] = target: EGFR L747 K754del insATSPE (Homo sapiens, UniProt P00533, DEL747-749/K754E); details: read-out: IC50 Values; Ba/F3 cells expressing EGFR L747 K754del insATSPE, 72 hours
Description: as §1, §2, §3

[11] = target: EGFR Ex19del G724S (Homo sapiens, UniProt P00533, DEL746-750/G724S); details: read-out: IC50 Values; Ba/F3 cells expressing EGFR Ex19del G724S, 72 hours
Description: (§4) The transforming capability of the mutations was then evaluated by sustained cell viability following IL-3 deprivation. Activating EGFR mutant Ba/F3 cells were then screened against EGFR TKIs. Cell viability was determined by the Cell Titer Glo assay.
(§5) Ba/F3 cells expressing acquired atypical mutations spanning exons 18-21 were treated with inhibitors for 72 hours. […] Briefly, stable Ba/F3 cell lines were generated by retroviral transduction of Ba/F3 cell line for 12 hours. […] Three days after transduction, 2 μg/ml puromycin (Invitrogen) was added to the RPMI media. Cell lines were then grown in the absence of IL-3 for two weeks and cell viability was assessed every three days using the Cell Titer Glo assay (Progema).
as §3

[12] = target: EGFR Ex19del/T790M/G724S (Homo sapiens, UniProt P00533, DEL746-750/G724S/T790M); details: read-out: IC50 Values; Ba/F3 cells expressing EGFR Ex19del/T790M/G724S, 72 hours
Description: as §1, §3

[13] = target: EGFR G719A L861Q (Homo sapiens, UniProt P00533, G719A/L861Q); details: read-out: IC50 Values; Ba/F3 cells expressing EGFR G719A L861Q, 72 hours
Description: as §1, §2, §3

[14] = target: EGFR l740duplPVAK (Homo sapiens, UniProt P00533, DUP740-745); details: read-out: IC50 Values; Ba/F3 cells expressing EGFR l740duplPVAK, 72 hours
Description: as §1, §2, §3

[15] = target: EGFR L858R/T790M (Homo sapiens, UniProt P00533, L858R/T790M); details: read-out: IC50 Values; Ba/F3 cells expressing EGFR L858R/T790M, 72 hours
Description: as §1, §2, §3

[16] = target: EGFR L718Q (Homo sapiens, UniProt P00533, L718Q); details: read-out: IC50 Values; Ba/F3 cells expressing EGFR L718Q, 72 hours
Description: as §1, §2, §3

[17] = target: EGFR G719S (Homo sapiens, UniProt P00533, G719S); details: read-out: IC50 Values; Ba/F3 cells expressing EGFR G719S, 72 hours
Description: as §1, §2, §3

[18] = target: EGFR S768I (Homo sapiens, UniProt P00533, S768I); details: read-out: IC50 Values; Ba/F3 cells expressing EGFR S768I, 72 hours
Description: as §1, §2, §3

[19] = target: EGFR Ex19del L718Q (Homo sapiens, UniProt P00533, DEL746-750/L718Q); details: read-out: IC50 Values; Ba/F3 cells expressing EGFR Ex19del L718Q, 72 hours
Description: as §4, §5, §3

[20] = target: EGFR G719A/R776C (Homo sapiens, UniProt P00533, G719A/R776C); details: read-out: IC50 Values; Ba/F3 cells expressing EGFR G719A/R776C, 72 hours
Description: as §1, §3

Chain of EGFR L718Q (P00533 25-1210 L718Q): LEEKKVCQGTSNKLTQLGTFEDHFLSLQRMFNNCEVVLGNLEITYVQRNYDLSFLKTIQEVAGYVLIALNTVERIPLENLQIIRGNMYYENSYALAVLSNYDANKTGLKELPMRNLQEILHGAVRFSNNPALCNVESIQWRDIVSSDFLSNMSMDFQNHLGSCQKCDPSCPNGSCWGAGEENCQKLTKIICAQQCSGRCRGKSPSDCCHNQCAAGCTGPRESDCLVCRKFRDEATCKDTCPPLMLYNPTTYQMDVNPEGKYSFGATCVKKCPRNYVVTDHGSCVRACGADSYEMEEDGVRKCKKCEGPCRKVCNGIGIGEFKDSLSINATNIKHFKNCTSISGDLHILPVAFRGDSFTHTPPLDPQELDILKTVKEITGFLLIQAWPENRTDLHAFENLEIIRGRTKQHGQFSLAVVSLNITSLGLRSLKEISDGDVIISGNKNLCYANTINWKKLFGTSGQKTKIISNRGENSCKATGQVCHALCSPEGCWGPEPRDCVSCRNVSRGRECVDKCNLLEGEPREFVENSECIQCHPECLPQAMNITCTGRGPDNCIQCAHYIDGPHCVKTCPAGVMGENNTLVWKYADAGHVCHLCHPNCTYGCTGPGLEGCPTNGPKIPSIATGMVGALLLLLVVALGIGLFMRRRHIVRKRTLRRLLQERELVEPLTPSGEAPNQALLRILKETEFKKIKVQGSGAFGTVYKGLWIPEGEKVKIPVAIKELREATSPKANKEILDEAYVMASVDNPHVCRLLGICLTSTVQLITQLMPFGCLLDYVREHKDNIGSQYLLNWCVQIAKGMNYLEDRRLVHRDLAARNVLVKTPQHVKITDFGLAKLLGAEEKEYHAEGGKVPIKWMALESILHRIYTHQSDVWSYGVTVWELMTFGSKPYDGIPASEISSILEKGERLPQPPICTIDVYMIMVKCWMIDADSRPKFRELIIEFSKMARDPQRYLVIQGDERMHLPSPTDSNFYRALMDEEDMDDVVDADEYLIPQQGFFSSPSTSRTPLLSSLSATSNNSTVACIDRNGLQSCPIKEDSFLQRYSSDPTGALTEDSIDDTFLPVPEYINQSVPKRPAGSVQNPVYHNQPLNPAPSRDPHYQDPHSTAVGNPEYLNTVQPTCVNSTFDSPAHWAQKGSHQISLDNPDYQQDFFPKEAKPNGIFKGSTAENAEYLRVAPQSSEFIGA
Chain of EGFR G719A L861Q (P00533 25-1210 G719A/L861Q): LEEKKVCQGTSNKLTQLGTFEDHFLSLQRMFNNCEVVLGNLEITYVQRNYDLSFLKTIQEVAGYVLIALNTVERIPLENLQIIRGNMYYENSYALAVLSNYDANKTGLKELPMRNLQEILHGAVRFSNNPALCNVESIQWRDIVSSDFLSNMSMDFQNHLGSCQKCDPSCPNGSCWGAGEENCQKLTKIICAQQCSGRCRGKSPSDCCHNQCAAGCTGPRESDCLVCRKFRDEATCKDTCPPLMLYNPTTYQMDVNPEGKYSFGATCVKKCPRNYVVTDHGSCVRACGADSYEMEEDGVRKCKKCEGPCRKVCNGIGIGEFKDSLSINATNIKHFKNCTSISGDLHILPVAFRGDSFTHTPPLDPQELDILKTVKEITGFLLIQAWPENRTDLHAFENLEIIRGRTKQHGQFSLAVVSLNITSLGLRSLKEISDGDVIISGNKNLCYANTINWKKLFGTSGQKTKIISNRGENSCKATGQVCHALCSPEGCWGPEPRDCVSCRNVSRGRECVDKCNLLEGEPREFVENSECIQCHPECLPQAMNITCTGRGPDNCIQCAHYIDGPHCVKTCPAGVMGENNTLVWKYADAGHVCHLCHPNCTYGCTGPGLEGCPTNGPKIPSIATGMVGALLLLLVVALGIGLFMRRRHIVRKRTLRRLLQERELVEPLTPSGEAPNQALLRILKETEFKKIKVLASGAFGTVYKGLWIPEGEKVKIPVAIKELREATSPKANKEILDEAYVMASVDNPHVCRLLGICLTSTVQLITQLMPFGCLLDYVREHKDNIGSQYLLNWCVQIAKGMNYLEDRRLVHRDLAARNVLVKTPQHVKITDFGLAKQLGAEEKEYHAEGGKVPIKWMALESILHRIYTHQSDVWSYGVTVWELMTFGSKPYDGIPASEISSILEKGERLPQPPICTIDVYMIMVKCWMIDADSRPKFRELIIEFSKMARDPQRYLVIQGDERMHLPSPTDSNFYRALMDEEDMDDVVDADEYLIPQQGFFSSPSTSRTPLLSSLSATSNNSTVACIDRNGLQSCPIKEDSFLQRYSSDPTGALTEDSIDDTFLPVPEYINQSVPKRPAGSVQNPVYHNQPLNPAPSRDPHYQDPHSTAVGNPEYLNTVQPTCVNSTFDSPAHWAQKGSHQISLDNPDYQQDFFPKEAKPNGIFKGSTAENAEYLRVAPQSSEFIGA
Chain of EGFR L858R/T790M (P00533 25-1210 T790M/L858R): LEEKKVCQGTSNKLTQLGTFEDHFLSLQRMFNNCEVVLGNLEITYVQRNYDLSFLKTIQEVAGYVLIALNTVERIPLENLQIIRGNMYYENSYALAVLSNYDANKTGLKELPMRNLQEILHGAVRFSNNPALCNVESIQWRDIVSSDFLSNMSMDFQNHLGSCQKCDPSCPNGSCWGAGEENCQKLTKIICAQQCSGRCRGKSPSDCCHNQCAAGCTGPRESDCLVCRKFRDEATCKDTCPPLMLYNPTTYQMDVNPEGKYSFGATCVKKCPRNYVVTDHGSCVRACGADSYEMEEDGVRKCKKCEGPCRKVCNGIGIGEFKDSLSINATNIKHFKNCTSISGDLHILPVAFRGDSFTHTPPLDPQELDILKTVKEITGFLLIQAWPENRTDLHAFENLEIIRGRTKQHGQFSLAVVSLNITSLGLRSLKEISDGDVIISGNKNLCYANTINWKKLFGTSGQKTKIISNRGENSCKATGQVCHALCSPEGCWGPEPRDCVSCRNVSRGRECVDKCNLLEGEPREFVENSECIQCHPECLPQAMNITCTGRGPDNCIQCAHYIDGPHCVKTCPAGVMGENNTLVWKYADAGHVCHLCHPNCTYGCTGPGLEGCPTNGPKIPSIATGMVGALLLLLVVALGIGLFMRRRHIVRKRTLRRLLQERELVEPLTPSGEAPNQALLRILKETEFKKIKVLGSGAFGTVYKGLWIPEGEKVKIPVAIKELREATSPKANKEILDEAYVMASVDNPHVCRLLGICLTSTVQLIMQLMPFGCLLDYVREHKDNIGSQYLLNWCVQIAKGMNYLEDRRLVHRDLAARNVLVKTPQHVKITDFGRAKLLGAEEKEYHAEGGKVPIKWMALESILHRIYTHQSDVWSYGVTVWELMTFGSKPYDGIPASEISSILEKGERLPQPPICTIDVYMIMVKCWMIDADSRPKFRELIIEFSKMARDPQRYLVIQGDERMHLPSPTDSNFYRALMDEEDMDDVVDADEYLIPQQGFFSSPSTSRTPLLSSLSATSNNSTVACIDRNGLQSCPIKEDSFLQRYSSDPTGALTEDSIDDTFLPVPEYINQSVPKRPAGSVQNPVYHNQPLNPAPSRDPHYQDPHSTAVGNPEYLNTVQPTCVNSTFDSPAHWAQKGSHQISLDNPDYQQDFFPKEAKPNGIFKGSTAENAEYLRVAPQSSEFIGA
Chain of EGFR T790M (P00533 25-1210 T790M): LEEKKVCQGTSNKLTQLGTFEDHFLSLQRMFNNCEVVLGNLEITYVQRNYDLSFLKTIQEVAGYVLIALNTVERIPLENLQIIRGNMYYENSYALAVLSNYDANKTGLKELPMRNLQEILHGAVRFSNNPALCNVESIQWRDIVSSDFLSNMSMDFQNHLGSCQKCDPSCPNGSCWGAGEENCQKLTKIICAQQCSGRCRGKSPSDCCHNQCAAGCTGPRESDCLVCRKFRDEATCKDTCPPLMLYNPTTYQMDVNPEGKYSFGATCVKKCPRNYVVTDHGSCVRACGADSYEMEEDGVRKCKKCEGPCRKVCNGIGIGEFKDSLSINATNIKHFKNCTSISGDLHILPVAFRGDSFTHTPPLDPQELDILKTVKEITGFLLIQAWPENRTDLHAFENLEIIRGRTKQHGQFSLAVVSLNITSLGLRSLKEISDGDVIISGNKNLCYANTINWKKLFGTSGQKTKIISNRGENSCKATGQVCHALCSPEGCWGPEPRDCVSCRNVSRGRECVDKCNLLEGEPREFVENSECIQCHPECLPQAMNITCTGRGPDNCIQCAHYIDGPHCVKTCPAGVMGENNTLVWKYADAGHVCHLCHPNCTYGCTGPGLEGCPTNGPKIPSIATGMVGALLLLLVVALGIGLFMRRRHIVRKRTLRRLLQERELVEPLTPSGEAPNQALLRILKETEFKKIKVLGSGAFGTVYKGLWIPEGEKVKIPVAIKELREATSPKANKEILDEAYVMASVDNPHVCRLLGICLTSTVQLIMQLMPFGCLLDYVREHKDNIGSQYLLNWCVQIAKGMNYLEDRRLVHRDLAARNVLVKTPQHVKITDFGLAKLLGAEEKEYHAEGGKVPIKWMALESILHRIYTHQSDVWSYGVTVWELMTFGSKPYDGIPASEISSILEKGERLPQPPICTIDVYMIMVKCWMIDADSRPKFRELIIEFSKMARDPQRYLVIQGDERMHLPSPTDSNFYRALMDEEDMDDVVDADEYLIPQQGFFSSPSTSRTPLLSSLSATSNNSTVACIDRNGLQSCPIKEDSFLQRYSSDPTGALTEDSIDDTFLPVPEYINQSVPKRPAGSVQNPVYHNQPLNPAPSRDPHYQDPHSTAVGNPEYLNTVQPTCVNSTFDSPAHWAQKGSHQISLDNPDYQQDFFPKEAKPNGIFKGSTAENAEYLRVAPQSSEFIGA

`C=CC(=O)N1CC[C@@H](Oc2nc(Nc3ccc(N4CCC(N5CCN(C)CC5)CC4)cc3)c(C(N)=O)nc2CC)C1` [Naquotinib] gave an IC50 [1] of 66.2 nM, an IC50 [2] of 54.4 nM and an IC50 [3] of 18.8 nM. For the same molecule, the IC50 [4] was 78.4 nM, the IC50 [5] was 575 nM and the IC50 [6] was 153 nM. The IC50 [7] was 145 nM, the IC50 [8] was 255 nM and the IC50 [9] was 2.05 nM. The IC50 [10] was 0.58 nM, the IC50 [11] was 697 nM and the IC50 [12] was 3.84 nM. For the same molecule, the IC50 [13] was 4.22 nM, the IC50 [14] was 67.7 nM and the IC50 [15] was 1.88 nM. The IC50 [16] was 734 nM, the IC50 [17] was 36.7 nM and the IC50 [18] was 503 nM. The IC50 [19] was 2.64 nM and the IC50 [20] was 39 nM.
